Experimental data as given in ChEMBL document CHEMBL5465560, “Selectivity Literature for EUbOPEN Chemogenomic Library” (2024).

Legend:
[1] = biological target: Phosphatidylinositol 4-phosphate 3-kinase C2 domain-containing subunit beta (Homo sapiens) (UniProt O00750); assay: Selectivity interaction (KinomeScan (DiscoverX)) EUB0000229b PIK3C2B; details: at 10 µM
[2] = biological target: Vascular endothelial growth factor receptor 2 (Homo sapiens, UniProt P35968); assay: Selectivity interaction (KinomeScan (DiscoverX)) EUB0000229b KDR; details: at 10 µM
[3] = biological target: Serine/threonine-protein kinase N2 (Homo sapiens, UniProt Q16513); assay: Selectivity interaction (KinomeScan (DiscoverX)) EUB0000092b PKN2; details: at 10 µM
[4] = biological target: Vascular endothelial growth factor receptor 1 (Homo sapiens) (UniProt P17948); assay: Selectivity interaction (KinomeScan (DiscoverX)) EUB0000092b FLT1; details: at 10 µM
[5] = biological target: SRSF protein kinase 1 (Homo sapiens, UniProt Q96SB4); assay: Selectivity interaction (KinomeScan (DiscoverX)) EUB0000655a SRPK1; details: at 10 µM
[6] = biological target: Homeodomain-interacting protein kinase 2 (Homo sapiens, UniProt Q9H2X6); assay: Selectivity interaction (ProQinase) EUB0000171b HIPK2
[7] = biological target: 5-hydroxytryptamine receptor 2A (Homo sapiens, UniProt P28223); assay: Selectivity interaction (Panel of kinases, GPCRs, ion channels and transporters (enzymatic assay)) EUB0000266bCl HTR2A
[8] = biological target: Serine/threonine-protein kinase WNK2 (Homo sapiens) (UniProt Q9Y3S1); assay: Selectivity interaction (KinomeScan (DiscoverX)) EUB0001079a WNK2; details: at 1 µM
[9] = biological target: STE20-like serine/threonine-protein kinase (Homo sapiens, UniProt Q9H2G2); assay: Selectivity interaction (Kinase panel (KiNativ target engagement assay in Jurkat cells)) EUB0001635a SLK; type: cell-based; details: Selectivity number of off-targets 0.0, Selectivity number of targets 233.0, Source Knowledge https://www.sciencedirect.com/science/article/pii/S2451945619300674?via%3Dihub, at 1 µM
[10] = biological target: T1, Phosphorylase b kinase gamma catalytic chain, liver/testis isoform (Homo sapiens) (UniProt P15735); assay: Selectivity interaction (KinomeScan (DiscoverX)) EUB0000666a PHKG2; details: at 10 µM
T1 sequence (whole entry): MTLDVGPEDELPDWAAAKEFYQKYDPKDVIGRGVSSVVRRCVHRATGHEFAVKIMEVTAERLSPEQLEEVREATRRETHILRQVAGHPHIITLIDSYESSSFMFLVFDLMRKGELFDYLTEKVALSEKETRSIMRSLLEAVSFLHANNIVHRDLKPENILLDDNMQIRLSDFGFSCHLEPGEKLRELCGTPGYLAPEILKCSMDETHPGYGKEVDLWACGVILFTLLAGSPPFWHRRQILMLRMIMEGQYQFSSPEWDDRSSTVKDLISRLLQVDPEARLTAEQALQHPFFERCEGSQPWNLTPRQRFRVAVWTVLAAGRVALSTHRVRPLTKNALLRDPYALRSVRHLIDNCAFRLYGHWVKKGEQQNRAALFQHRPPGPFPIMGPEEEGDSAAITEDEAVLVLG

[11] = biological target: Beta-1 adrenergic receptor (Homo sapiens, UniProt P08588); assay: Selectivity interaction (Beta 1 adrenergic receptor assay, human recombinant ) EUB0000877a ADRB1
[12] = biological target: Tyrosine-protein kinase Lck (Homo sapiens, UniProt P06239); details: at 10 µM
[13] = biological target: T2, Histone-arginine methyltransferase CARM1 (Homo sapiens) (UniProt Q86X55); assay: Selectivity interaction (Transferase panel (protein, RNA, and DNA methyltransferases. and EP300 (acetyltransferase))) EUB0000270b CARM1
T2 sequence (whole entry): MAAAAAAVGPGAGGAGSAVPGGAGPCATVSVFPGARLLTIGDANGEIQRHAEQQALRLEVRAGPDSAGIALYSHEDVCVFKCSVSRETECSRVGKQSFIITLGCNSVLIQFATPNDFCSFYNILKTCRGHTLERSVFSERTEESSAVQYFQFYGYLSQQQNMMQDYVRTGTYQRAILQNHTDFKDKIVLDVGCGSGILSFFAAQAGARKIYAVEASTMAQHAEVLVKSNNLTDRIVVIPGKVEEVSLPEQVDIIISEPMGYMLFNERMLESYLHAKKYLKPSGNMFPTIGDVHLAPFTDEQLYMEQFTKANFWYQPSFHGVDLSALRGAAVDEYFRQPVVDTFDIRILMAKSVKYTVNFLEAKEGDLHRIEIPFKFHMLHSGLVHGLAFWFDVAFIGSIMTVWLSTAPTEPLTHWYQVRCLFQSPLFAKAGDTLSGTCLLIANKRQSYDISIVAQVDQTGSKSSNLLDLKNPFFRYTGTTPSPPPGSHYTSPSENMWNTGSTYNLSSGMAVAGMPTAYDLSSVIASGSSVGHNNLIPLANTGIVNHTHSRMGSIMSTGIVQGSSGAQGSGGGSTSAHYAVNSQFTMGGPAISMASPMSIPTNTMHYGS

[14] = biological target: Focal adhesion kinase 1 (Homo sapiens, UniProt Q05397); assay: Selectivity interaction (ActivX KiNativ screen (kinase selectivity in THP-1 cell lysates)) EUB0000639a PTK2; type: subcellular; details: lysate
[15] = biological target: Receptor-type tyrosine-protein kinase FLT3 (Homo sapiens) (UniProt P36888); assay: Selectivity interaction (KinomeScan (DiscoverX)) EUB0000607a FLT3; details: at 10 µM
[16] = biological target: Serine/threonine-protein kinase PAK 6 (Homo sapiens) (UniProt Q9NQU5); assay: Selectivity interaction (KinomeScan (DiscoverX)) EUB0000595a PAK6; details: at 10 µM
[17] = biological target: T3, Testis-specific serine/threonine-protein kinase 1 (Homo sapiens) (UniProt Q9BXA7); assay: Selectivity interaction (KinomeScan (DiscoverX)) EUB0000618a TSSK1A; details: at 10 µM
T3 sequence (whole entry): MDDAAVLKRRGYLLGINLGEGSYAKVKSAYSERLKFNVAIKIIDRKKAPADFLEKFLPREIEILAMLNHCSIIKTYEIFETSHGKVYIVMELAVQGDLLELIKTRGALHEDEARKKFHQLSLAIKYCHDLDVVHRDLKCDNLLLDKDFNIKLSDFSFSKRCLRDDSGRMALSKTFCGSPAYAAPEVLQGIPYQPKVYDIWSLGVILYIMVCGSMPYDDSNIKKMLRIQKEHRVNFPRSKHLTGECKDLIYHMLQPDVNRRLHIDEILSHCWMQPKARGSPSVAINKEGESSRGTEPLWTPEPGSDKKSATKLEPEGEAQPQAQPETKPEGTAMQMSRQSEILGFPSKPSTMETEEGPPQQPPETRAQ

[18] = biological target: SRSF protein kinase 2 (Homo sapiens) (UniProt P78362); assay: Selectivity interaction (KinomeScan (DiscoverX)) EUB0000618a SRPK2; details: at 10 µM
[19] = biological target: Calcium/calmodulin-dependent protein kinase type II subunit beta (Homo sapiens) (UniProt Q13554); assay: Selectivity interaction (KinomeScan (DiscoverX)) EUB0001619a CAMK2B; details: at 1 µM
[20] = Selectivity interaction (KinomeScan (DiscoverX)) EUB0001619a PKNB; details: at 1 µM

Chain of Focal adhesion kinase 1 (Q05397 2-1052 limits assumed): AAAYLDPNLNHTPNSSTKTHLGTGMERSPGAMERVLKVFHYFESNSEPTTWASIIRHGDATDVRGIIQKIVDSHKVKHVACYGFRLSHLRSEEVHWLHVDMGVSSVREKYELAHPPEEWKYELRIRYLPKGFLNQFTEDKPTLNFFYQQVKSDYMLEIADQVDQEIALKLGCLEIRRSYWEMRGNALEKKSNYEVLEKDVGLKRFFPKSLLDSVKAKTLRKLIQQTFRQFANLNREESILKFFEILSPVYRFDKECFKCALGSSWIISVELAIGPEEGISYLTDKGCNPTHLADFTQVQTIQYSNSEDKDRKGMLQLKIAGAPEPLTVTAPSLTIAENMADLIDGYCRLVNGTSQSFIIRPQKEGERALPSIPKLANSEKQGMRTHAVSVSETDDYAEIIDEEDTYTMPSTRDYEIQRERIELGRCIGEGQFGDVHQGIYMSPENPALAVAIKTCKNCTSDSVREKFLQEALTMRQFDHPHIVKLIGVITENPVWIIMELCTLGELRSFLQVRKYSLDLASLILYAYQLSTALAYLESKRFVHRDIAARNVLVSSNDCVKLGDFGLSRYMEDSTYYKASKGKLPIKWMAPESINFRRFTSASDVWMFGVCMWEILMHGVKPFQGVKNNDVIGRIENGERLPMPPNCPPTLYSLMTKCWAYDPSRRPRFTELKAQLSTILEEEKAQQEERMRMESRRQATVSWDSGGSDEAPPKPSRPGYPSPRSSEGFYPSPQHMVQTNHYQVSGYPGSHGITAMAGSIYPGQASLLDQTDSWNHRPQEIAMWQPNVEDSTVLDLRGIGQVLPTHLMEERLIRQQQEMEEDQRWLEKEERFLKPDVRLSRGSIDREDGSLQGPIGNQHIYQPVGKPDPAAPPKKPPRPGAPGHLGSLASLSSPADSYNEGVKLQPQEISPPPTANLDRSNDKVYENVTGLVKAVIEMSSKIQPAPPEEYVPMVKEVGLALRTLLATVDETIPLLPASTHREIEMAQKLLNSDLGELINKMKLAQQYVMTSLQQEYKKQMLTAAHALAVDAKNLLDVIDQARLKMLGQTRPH
Chain of Homeodomain-interacting protein kinase 2 (Q9H2X6 whole entry, looked up): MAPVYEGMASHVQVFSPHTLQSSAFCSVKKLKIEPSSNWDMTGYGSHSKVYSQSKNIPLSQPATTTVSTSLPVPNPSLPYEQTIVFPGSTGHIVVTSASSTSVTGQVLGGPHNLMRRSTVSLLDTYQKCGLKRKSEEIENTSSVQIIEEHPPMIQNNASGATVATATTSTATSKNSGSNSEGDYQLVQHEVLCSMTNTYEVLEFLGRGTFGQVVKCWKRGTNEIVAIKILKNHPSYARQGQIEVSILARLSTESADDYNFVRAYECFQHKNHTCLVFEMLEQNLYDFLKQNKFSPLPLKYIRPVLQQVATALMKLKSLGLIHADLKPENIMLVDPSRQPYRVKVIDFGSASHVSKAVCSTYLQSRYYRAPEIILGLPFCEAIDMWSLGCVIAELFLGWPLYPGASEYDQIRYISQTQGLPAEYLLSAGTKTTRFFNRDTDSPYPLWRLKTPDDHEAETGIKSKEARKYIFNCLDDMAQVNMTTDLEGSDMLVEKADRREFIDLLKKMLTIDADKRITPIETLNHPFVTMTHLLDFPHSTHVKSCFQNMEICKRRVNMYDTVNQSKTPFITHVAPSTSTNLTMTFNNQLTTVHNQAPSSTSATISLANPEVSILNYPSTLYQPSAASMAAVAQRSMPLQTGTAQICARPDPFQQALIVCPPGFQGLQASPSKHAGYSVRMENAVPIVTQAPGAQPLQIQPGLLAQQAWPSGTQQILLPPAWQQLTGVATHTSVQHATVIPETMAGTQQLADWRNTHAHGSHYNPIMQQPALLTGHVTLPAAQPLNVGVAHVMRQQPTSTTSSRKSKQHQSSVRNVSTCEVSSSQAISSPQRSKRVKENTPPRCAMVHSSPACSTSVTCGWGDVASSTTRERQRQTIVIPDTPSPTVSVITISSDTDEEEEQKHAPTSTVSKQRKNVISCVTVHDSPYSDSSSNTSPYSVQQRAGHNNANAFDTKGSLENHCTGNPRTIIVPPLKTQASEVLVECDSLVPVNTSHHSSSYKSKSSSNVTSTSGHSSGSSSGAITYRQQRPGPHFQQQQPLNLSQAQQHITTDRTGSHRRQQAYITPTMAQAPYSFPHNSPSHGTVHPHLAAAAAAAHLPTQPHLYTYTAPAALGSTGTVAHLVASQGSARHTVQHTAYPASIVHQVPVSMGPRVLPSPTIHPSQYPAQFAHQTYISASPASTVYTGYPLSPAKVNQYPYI
Chain of Vascular endothelial growth factor receptor 1 (Homo sapiens) (P17948 whole entry): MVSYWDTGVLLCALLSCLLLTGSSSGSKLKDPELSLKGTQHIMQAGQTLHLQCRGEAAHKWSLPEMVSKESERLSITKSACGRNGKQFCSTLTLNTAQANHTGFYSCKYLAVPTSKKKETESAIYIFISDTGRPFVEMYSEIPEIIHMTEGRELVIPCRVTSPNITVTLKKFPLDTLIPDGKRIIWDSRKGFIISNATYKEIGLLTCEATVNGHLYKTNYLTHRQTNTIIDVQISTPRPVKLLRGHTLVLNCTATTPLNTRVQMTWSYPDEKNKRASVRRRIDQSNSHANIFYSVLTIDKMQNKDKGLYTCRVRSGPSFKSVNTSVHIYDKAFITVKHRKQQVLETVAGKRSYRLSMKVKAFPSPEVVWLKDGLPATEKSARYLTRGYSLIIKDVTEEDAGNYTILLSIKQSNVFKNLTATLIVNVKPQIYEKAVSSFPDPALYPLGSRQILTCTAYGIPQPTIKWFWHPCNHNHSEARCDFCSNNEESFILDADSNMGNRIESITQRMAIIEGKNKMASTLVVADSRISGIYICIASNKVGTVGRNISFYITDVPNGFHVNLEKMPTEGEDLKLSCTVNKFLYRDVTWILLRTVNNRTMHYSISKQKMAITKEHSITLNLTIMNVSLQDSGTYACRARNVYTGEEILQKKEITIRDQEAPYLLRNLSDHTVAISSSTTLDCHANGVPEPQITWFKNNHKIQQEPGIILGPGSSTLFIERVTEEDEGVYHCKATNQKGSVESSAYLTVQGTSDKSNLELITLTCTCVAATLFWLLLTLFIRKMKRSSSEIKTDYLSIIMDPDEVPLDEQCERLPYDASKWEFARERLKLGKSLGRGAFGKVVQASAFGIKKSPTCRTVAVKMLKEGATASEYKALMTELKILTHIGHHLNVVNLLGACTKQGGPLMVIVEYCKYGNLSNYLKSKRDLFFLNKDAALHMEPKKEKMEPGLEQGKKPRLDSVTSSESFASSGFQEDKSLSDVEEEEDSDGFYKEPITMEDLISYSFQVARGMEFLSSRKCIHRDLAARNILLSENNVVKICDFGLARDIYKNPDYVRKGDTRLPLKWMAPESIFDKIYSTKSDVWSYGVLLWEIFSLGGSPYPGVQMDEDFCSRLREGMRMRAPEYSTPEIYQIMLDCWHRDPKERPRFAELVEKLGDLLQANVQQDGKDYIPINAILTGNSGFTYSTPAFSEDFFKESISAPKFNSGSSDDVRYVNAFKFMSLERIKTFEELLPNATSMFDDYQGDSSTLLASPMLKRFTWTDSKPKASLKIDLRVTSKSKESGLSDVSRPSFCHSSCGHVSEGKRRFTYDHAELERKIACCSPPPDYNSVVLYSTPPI
Chain of STE20-like serine/threonine-protein kinase (Q9H2G2 whole entry, looked up, canonical isoform): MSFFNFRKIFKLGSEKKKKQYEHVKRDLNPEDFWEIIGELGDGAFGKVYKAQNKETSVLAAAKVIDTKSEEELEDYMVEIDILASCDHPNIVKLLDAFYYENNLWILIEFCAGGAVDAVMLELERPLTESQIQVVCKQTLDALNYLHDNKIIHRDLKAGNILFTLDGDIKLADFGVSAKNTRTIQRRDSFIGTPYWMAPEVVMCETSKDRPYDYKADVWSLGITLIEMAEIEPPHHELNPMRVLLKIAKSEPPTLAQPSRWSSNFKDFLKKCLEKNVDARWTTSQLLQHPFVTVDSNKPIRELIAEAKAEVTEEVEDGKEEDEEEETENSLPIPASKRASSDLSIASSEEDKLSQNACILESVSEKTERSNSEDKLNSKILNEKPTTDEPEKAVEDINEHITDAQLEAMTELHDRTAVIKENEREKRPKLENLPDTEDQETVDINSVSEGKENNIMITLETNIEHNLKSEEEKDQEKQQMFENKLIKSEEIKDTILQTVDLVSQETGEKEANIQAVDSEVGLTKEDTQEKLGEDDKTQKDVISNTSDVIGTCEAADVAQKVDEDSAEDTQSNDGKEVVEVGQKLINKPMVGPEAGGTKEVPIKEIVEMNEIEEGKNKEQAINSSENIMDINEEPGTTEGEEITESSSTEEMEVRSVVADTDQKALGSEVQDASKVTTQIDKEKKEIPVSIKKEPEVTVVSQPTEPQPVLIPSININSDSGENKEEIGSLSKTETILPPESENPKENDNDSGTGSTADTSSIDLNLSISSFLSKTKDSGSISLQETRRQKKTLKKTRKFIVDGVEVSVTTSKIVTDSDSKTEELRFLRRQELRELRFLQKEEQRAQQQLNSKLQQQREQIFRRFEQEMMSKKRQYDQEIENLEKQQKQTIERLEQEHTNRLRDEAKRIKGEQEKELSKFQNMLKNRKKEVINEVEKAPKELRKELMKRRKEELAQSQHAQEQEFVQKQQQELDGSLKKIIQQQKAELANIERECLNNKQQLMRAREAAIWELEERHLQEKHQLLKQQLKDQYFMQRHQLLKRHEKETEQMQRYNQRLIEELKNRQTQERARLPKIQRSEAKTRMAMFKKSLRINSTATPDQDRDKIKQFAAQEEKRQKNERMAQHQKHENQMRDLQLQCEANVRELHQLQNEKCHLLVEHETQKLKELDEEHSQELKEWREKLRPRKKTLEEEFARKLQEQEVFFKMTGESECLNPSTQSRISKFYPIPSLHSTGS

COc1cc(N(C)c2ccnc3ccc(C(F)(F)F)cc23)cc(OC)c1OC
% binding [1]: 100% | % binding [2]: 85%

CCC(=O)N1CCN(c2ccc(-n3c(=O)ccc4cnc5ccc(-c6cnc7ccccc7c6)cc5c43)cc2C(F)(F)F)CC1
% of control [3]: 65% | % of control [4]: 79%

CN(C)CCOc1ccc(-c2nc(-c3ccncc3)c(-c3ccc4c(c3)CC/C4=N\O)[nH]2)cc1
% of control [5]: 86%

C=CC(=O)Nc1cccc(C(=O)Nc2ccc(Nc3cc(-c4[nH]c(SC)nc4C)ccn3)cc2)c1
% of control ([6]; at 1 µM): 100% | % of control ([6]; at 5 µM): 87%

CCn1c(-c2nc3cc(C(=O)N4CCCC(N)C4)ccc3n2C)cc2ccccc21 (stereo unspecified)
pXC50 [7]: 5.3 M

Nc1cnc(N2CCc3cc(S(=O)(=O)Nc4c(F)cc(Cl)cc4F)cc(N4CCCC4=O)c32)nc1 [TP-020n]
% of control [8]: 100%

C=CC(=O)Nc1ccc(C(=O)Nc2[nH]nc3c2CN(C(=O)N[C@H](CN(C)C)c2ccccc2)C3(C)C)cc1
% of engagement [9]: -7.6%

O=C(NOC[C@H](O)CO)c1ccc(F)c(F)c1Nc1ccc(I)cc1F
% of control [10]: 93%

CCC(=O)N1CC[C@H](Nc2ncnc3c2CN(c2cnc(OC)c(C(F)(F)F)c2)CC3)C1 [LENIOLISIB]
IC50 [11]: > 30 µM

Cc1cc([C@@H](C)Nc2ccccc2C(=O)O)c2nc(N3CCOCC3)cc(=O)n2c1 [AZD-6482]
% of control [12]: 97%

Cc1cc(CN)cc(C)c1-c1ncn(C)c1-c1cncn1C
% activity ([13]; at 1 µM): > 90% | % activity ([13]; at 10 µM): > 80%

CC[C@@H]1[C@H](F)C(=O)N[C@@H]1COc1nccc2cc(C(N)=O)c(OC)cc12 [ZIMLOVISERTIB]
% of inhibition ([14]; at 0.01 µM): 25.4% | % of inhibition ([14]; at 0.04 µM): -3.4% | % of inhibition ([14]; at 0.2 µM): -1.1% | % of inhibition ([14]; at 1 µM): -16.1% | % of inhibition ([14]; at 5 µM): 15.5%

CNC(=O)Nc1ccc(-c2nc(N3CC4CCC(C3)O4)c3cnn(C4CCC5(CC4)OCCO5)c3n2)cc1
% of control [15]: 77%

COCC(=O)NC/C=C/c1ccc2ncnc(Nc3ccc(Oc4ccc(C)nc4)c(C)c3)c2c1 [CP-724714]
% of control [16]: 89%

O[C@H]1CC[C@H](Nc2ncc3nc(Nc4c(F)cc(F)cc4F)n([C@H]4CCOC4)c3n2)CC1
% of control [17]: 100% | % of control [18]: 100%

N#Cc1cccc(-c2c[nH]c3ncnc(N4CCOCC4)c23)c1
% of control [19]: 83% | % of control [20]: 47%
